Values belong to the molecule of their own block, whether it stands above or below them.
Columns and labels:
UGT91D-like3 = assay: Assay for enzyme activity of UGT91D-like3 on glycosyl acceptor substrates, LC-MS analysis; type: biochemical, stevia; conditions: for product formation on reaction of the glycosyl acceptor substrate with UGT91D-like3: 2 mM UDP-glucose, 0.1 mM glycosyl acceptor substrate, potassium phosphate buffer pH 7.0, 30° C., an hour, LC-MS
Experimental: (§1) Standard conditions for the enzyme reaction were as follows: A reaction solution (2 mM UDP-glucose, 0.1 mM glycosyl acceptor substrate, 100 mM potassium phosphate buffer (pH 7.0) and 25 μl of purified UGT91D-like3 enzyme solution) was prepared in distilled water to become 50 μl, and reacted at 30° C. for an hour. LC-MS analysis was performed for 5 μl of the enzyme reaction solution under the following conditions.
Column: Waters Sunfire C18 3.5 um […]
Moving phase: A: MilliQ Water (+0.05% formic acid), B: MeCN
Gradient: linear density gradient from 15% to 55% in B density (20 mins.)
Steviolmonoside (peak B) was prepared by reacting UGT85C2 and steviol (peak A), and the steviolmonoside was reacted with UGT91D-like3. […] This peak was identified as steviolbioside based on the retention time and mass fragmentation pattern. […] It was confirmed that UGT91D-like3 had the activity of forming steviolbioside (peak C) by glucosylation of steviolmonoside (peak B).

[1] = reported in the prior art (Non-Patent Document 2); cited from earlier work
[2] = Comparison in relative enzyme activity between recombinant UGT proteins, rubusoside as substrate; type: biochemical, stevia; conditions: for relative enzyme activity (amount of stevioside produced divided by amount of protein): glucosylation activity of UGT91D2e made 100%
Experimental: as §1
As given below, the Escherichia coli expression construct of UGT91D2e was prepared, and the enzyme activities of UGT91D2e and UGT91D-like3 were evaluated by the same manner as in EXAMPLES 3 and 4.
The enzyme activities were compared between the purified proteins of UGT91D-like3 and UGT91D2e expressed in Escherichia coli. Using rubusoside as substrate, the comparison was made under the same enzyme reaction conditions and analysis conditions as in EXAMPLE 4. A relative enzyme activity was calculated by dividing the amount of stevioside produced by the amount of the protein provided for the reaction.

Molecule: O=c1ccn([C@@H]2O[C@H](COP(=O)(O)OP(=O)(O)O[C@H]3OC[C@@H](O)[C@H](O)[C@H]3O)[C@@H](O)[C@H]2O)c(=O)[nH]1 [UDP-xylose]
- use as sugar donor by UGT91D-like3 (UGT91D-like3): did not use UDP-xylose as the sugar donor

B1: UGT91D1: known stevia glucosyltransferase, GENBANK Accession No. AY345980 (protein, UniProt Q6VAA8 1-485, looked up)
UDP-glycosyltransferase 91D1: MYNVTYHQNSKAMATSDSIVDDRKQLHVATFPWLAFGHILPFLQLSKLIAEKGHKVSFLSTTRNIQRLSSHISPLINVVQLTLPRVQELPEDAEATTDVHPEDIQYLKKAVDGLQPEVTRFLEQHSPDWIIYDFTHYWLPSIAASLGISRAYFCVITPWTIAYLAPSSDAMINDSDGRTTVEDLTTPPKWFPFPTKVCWRKHDLARMEPYEAPGISDGYRMGMVFKGSDCLLFKCYHEFGTQWLPLLETLHQVPVVPVGLLPPEIPGDEKDETWVSIKKWLDGKQKGSVVYVALGSEALVSQTEVVELALGLELSGLPFVWAYRKPKGPAKSDSVELPDGFVERTRDRGLVWTSWAPQLRILSHESVCGFLTHCGSGSIVEGLMFGHPLIMLPIFCDQPLNARLLEDKQVGIEIPRNEEDGCLTKESVARSLRSVVVENEGEIYKANARALSKIYNDTKVEKEYVSQFVDYLEKNARAVAIDHES
- activity for steviolmonoside [1]: no activity

B2: UGT91D2e: prior art glucosyltransferase (Patent Document 3), SEQ ID NO: 32, short by the 12 amino acids (protein, listed as Stevia rebaudiana)
chain: MATSDSIVDDRKQLHVATFPWLAFGHILPYLQLSKLIAEKGHKVSFLSTTRNIQRLSSHISPLINVVQLTLPRVQELPEDAEATTDVHPEDIPYLKKASDGLQPEVTRFLEQHSPDWIIYDYTHYWLPSIAASLGISRAHFSVTTPWAIAYMGPSADAMINGSDGRTTVEDLTTPPKWFPFPTKVCWRKHDLARLVPYKAPGISDGYRMGLVLKGSDCLLSKCYHEFGTQWLPLLETLHQVPVVPVGLLPPEIPGDEKDETWVSIKKWLDGKQKGSVVYVALGSEVLVSQTEVVELALGLELSGLPFVWAYRKPKGPAKSDSVELPDGFVERTRDRGLVWTSWAPQLRILSHESVCGFLTHCGSGSIVEGLMFGHPLIMLPIFGDQPLNARLLEDKQVGIEIPRNEEDGCLTKESVARSLRSVVVEKEGEIYKANARELSKIYNDTKVEKEYVSQFVDYLEKNARAVAIDHES
- relative enzyme activity (amount of stevioside produced divided by amount of protein) [2]: 100%

B3: UGT91D-like3: novel stevia glucosyltransferase, amino acid sequence SEQ ID NO: 2 (protein, listed as Stevia rebaudiana)
chain: MYNVTYHQNSKAMATSDSIVDDRKQLHVATFPWLAFGHILPYLQLSKLIAEKGHKVSFLSTTRNIQRLSSHISPLINVVQLTLPRVQELPEDAEATTDVHPEDIPYLKKASDGLQPEVTRFLEQHSPDWIIYDYTHYWLPSIAASLGISRAHFSVTTPWAIAYMGPSADAMINGSDGRTTVEDLTTPPKWFPFPTKVCWRKHDLARLVPYKAPGISDGYRMGLVLKGSDCLLSKCYHEFGTQWLPLLETLHQVPVVPVGLLPPEIPGDEKDETWVSIKKWLDGKQKGSVVYVALGSEVLVSQTEVVELALGLELSGLPFVWAYRKPKGPAKSDSVELPDGFVERTRDRGLVWTSWAPQLRILSHESVCGFLTHCGSGSIVEGLMFGHPLIMLPIFGDQPLNARLLEDKQVGIEIPRNEEDGCLTKESVARSLRSVVVEKEGEIYKANARELSKIYNDTKVEKEYVSQFVDYLEKNARAVAIDHES
- relative enzyme activity per protein amount higher than UGT91D2e [2]: 67%
- relative enzyme activity (amount of stevioside produced divided by amount of protein) [2]: 167%

Second part, the molecule after the results:

- product formation on reaction of the glycosyl acceptor substrate with UGT91D-like3 (UGT91D-like3): gave a new peak E
Molecule: C=C1C[C@@]23CC[C@H]4[C@@](C)(CCC[C@@]4(C)C(=O)O[C@@H]4O[C@H](CO)[C@@H](O)[C@H](O)[C@H]4O)[C@@H]2CC[C@]1(O[C@@H]1O[C@H](CO)[C@@H](O)[C@H](O)[C@H]1O)C3 [rubusoside]

- product formation on reaction of the glycosyl acceptor substrate with UGT91D-like3 (UGT91D-like3): any new product was not detected
Molecule: C=C1C[C@@]23CC[C@H]4[C@@](C)(CCC[C@@]4(C)C(=O)O)[C@@H]2CC[C@]1(O[C@@H]1O[C@H](CO)[C@@H](O)[C@H](O)[C@H]1O[C@@H]1O[C@H](CO)[C@@H](O)[C@H](O)[C@H]1O)C3 [steviolbioside]

- product formation on reaction of the glycosyl acceptor substrate with UGT91D-like3 (UGT91D-like3): no product was detected
Molecule: C=C1C[C@@]23CC[C@H]4[C@@](C)(CCC[C@@]4(C)C(=O)O)[C@@H]2CC[C@]1(O)C3 [steviol]

- product formation on reaction of the glycosyl acceptor substrate with UGT91D-like3 (UGT91D-like3): a new product (peak C) was detected
Molecule: C=C1C[C@@]23CC[C@H]4[C@@](C)(CCC[C@@]4(C)C(=O)O)[C@@H]2CC[C@]1(O[C@@H]1O[C@H](CO)[C@@H](O)[C@H](O)[C@H]1O)C3 [steviolmonoside]

Source: patent US10000783B2, “Steviol glucosyltransferases and genes encoding the same” (SUNTORY HOLDINGS LIMITED, priority 2012, dated 2018)
